The source of these data is ChEMBL document CHEMBL4261502, “Histone lysine methyltransferase structure activity relationships that allow for segregation of G9a inhibition and anti-Plasmodium activity” (Medchemcomm, 2017).

The subject of this test is Plasmodium falciparum. As to the kind of experiment: Antiplasmodial activity against Plasmodium falciparum 3D7 after 3 days by SYBR green1 dye based assay. Conditions: 3D7, 72 h. In kind it is functional, organism-based.

The IC50 is the concentration that gives 50% inhibition. Higher therefore signals lower potency. In the case of `COc1cc2c(NC3CCN(C)CC3)nc(N3CCCN(C)CC3)nc2cc1OCCCN1CCCCC1`, the IC50 is above 2000 nM.
For `COc1cc2c(NC3CCN(C)CC3)nc(N3CCCN(C)CC3)nc2cc1OCCCN1CCCC1` the value was above 2000 nM; for `COc1cc2c(NC3CCN(C)CC3)nc(N3CCCN(C)CC3)nc2cc1OCc1ccccc1`, 43 nM; for `COc1cc2c(NC3CCN(C)CC3)nc(N3CCCN(C)CC3)nc2cc1OCCN(C)C`, above 2000 nM.
`COc1cc2c(NC3CCN(C)CC3)nc(N3CCCN(C)CC3)nc2cc1OCCCN(C)C` came in with an IC50 above 2000 nM.
`COc1cc2nc(N3CCN(C)CC3)nc(NC3CCN(C)CC3)c2cc1OC` showed an IC50 above 300 nM.
For `COc1cc2nc(N3CCCN(C)CC3)nc(NC3CCN(Cc4ccccc4)CC3)c2cc1OC` the value was 43 nM; for `COc1cc2nc(N3CCCN(C)CC3)nc(NC3CCN(C)CC3)c2cc1OC`, above 300 nM.
